Our source for the IC50 values is ChEMBL document CHEMBL1144428 (J Med Chem, 2005).

The target in this experiment is T1, Prostaglandin G/H synthase 1 (Mus musculus, UniProt P22437).
T1 sequence (P22437 whole entry): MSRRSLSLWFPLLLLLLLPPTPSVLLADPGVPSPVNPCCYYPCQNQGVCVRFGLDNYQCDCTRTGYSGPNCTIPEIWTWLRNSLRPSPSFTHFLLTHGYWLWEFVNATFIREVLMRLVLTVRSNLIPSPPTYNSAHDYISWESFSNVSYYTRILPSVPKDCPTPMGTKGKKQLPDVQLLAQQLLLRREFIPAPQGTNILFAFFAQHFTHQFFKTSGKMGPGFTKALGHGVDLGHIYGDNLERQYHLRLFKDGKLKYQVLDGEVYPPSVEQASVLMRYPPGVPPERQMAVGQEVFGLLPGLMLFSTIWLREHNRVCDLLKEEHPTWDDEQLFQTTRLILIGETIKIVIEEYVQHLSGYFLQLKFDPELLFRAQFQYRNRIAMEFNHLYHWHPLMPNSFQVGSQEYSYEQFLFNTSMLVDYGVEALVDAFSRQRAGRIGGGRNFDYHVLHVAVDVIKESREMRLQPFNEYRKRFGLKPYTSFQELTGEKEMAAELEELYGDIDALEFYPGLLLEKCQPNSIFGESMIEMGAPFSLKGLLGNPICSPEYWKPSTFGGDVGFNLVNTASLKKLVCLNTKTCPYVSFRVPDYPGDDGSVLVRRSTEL
Description: In vitro inhibitory activity against Prostaglandin G/H synthase 1 in murine J774 cells

As to `CCOC(=O)C(=O)c1cc(-c2ccc(S(C)(=O)=O)cc2)n(-c2ccc(C)cc2)c1C`, the 50% inhibitory concentration (IC50) is above 100 µM.
For the compound `CCOC(=O)Cc1cc(-c2ccc(S(C)(=O)=O)cc2)n(-c2ccccc2)c1C`, the half-maximal inhibitory concentration (IC50) was above 100 µM.
The value for `Cc1c(CC(=O)O)cc(-c2ccc(S(C)(=O)=O)cc2)n1-c1ccccc1` was above 100 µM; that for `CCOC(=O)Cc1cc(-c2ccc(S(C)(=O)=O)cc2)n(-c2ccc(C(F)(F)F)cc2)c1C` was above 100 µM.
The value for `Cc1c(CC(=O)O)cc(-c2ccc(S(C)(=O)=O)cc2)n1-c1ccc(C(F)(F)F)cc1` was above 100 µM; that for `CCOC(=O)C(=O)c1cc(-c2ccc(S(C)(=O)=O)cc2)n(-c2ccccc2)c1C` was above 100 µM.
Next, `CCOC(=O)Cc1cc(-c2ccc(S(C)(=O)=O)cc2)n(-c2ccc(C)cc2)c1C`: above 100 µM; `CCOC(=O)C(=O)c1cc(-c2ccc(S(C)(=O)=O)cc2)n(-c2ccc(C(F)(F)F)cc2)c1C`: above 100 µM; `Cc1ccc(-n2c(-c3ccc(S(C)(=O)=O)cc3)cc(CC(=O)O)c2C)cc1`: above 100 µM.
